Series [1] concerns human beta-coronavirus OC43. The series can be described thus: OC43 coronavirus antiviral assay in HeLa cells. Particulars: Betacoronavirus 1, 144 h, OC43, 6 days at 33° C., cell-titer-glo. Type of series: cell-based. Here is the method: (§1) The human beta-coronavirus OC43 was purchased from ATCC (Manassas, VA) and propagated using HCT-8 human colorectal epithelial cells (ATCC). HeLa human cervical epithelial cells (ATCC) were used as susceptible host cell lines and were cultured using EMEM media, supplemented with 10% fetal bovine serum (FBS), 1% (v/v) penicillin/streptomycin (P/S), 1% (v/v) HEPES and 1% (v/v) cellgro Glutagro™ supplement (all Corning, Manassas, VA) at 37° C. For the OC43 antiviral assay, 1.5×10^4 HeLa cells per well were plated in 100 μL complete media in white 96-well plates with clear bottoms at 37° C. for up to 24 h to facilitate attachment and allow cells to recover from seeding stresses. Next day, the cell culture medium was removed. Serially diluted compounds in 100 μL assay media (EMEM, 2% FBS, 1% P/S, 1% cellgro Glutagro™ supplement, 1% HEPES) were added to the cells and incubated for 4 h at 37° C. in a humidified 5% CO2 incubator. 100 μL of OC43 virus stock was diluted to a concentration known to produce optimal cytopathic effect, inducing 80-90% reduction in cell viability. 96-well plates were incubated for 6 days at 33° C.; each plate contains uninfected control wells as well as virus-infected wells that were not treated with compound. Cytotoxicity plates without the addition of OC43 virus were carried out in parallel. At the end of the incubation period, 100 μL cell culture supernatant was replaced with 100 μL cell-titer-glo reagent (Promega, Madison, WI) and incubated for at least 10 min at rt prior to measuring luminescence. Luminescence was measured on a Perkin Elmer (Waltham, MA) Envision plate reader. Antiviral % inhibition was calculated as follows: [(Compound treated cells infected sample)−(no compound infected control)]/[(Uninfected control)−(no compound infected control)]*100; Using GraphPad (San Diego, CA) prism software version 8.3.1, the antiviral dose-response plot was generated as a sigmoidal fit, log(inhibitor) vs response-variable slope (four parameters) model and the EC50 was calculated which is the predicted compound concentration corresponding to a 50% inhibition of the viral cytopathic effect.
(§2) Table 2 indicates related EC50 and CC50 values for the tested compounds ‘A’ indicates an EC50<100 nM, ‘B’ indicates an EC50 of ≥100 nM and <1000 nM, ‘C’ indicates an EC50≥1000 nM and <10000 nM and ‘D’ indicates an EC50≥10000 nM and <100000 nM. For CC50, the values are reported in micromolar (M), ‘A’ indicates a CC50≥10000 nM and ‘B’ indicates a CC50≥1 μM and <10 μM.

The nature of series [2]: in vitro. Particulars: human.
Series [3] in a line: Cytotoxicity in HeLa cells without OC43 virus. Type of series: cell-based. The note with it: human, HeLa cells (uninfected), in parallel. Here is the method: as §1, §2
Series [4] addresses T1, SARS-Cov-2 3CLpro (Severe acute respiratory syndrome coronavirus 2, UniProt P0DTD1).
T1 construct: 3CLpro was added using a Multidrop Combi
The series can be described thus: SARS-Cov-2 3CLpro protease assay (SAMDI-MS). The format is biochemical.

Series [5] relates to SARS-CoV-2 B.1.1.7 lineage. The series can be described thus: microbe, parasite or virus in culture. Type of series: cell-based. The note with it: Severe acute respiratory syndrome coronavirus 2, 96 h; read-out: A549-dual_ACE2_TMPRSS2 (EC50).
Series [6] addresses T2, human cathepsin L (Homo sapiens, UniProt P07711).
T2 construct: purchased R&D Systems
The series can be described thus: Cathepsin L assay. Particulars: 10 pM human cathepsin L, Z-FR-AMC 2 μM. Type of series: biochemical. On the procedure:
For the cathepsin L assay, 10 pM of human cathepsin L (R&D Systems; Minneapolis, MN) was preincubated for 30 mins with test compounds. Reactions were initiated by the addition of a peptide substrate Z-FR-AMC (final concentration 2 μM, Anaspec; Fremont, CA). Fluorescence was measured at 2-minute intervals for 30 mins using a 355/460 excitation/emission filter module on an Envision plate reader (Perkin Elmer; Waltham, MA). The IC50 values were calculated for each assay by fitting the curves using a four-parameter equation in GraphPad Prism.
Table 4 indicates related IC50 values for the tested compounds where ‘A’ indicates an IC50≥10000 nM, ‘B’ indicates an IC50 of ≥1000 nM and <10000 nM, ‘C’ indicates an IC50; ≥100 nM and <1000 nM, ‘D’ indicates an IC50<100 nM.

Setting [7] is: 30 mins preincubation, duplex peptide substrates, read-out: SARS-Cov-2 (3CLpro IC50).

Like-named read-outs stand apart in the source and are kept apart here. Some results are limits rather than exact numbers.

T2 sequence (P07711 114-333): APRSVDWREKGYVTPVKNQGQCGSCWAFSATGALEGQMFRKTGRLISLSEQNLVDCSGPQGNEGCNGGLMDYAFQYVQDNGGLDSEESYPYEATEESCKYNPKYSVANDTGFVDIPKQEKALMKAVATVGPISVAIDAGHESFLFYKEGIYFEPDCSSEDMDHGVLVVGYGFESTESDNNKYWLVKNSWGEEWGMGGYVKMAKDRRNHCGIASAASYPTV

On to `CC(C)(C)[C@H](NC(=O)C(F)(F)F)C(=O)N1C[C@@H]2[C@H]3C[C@@H]([C@@H]2[C@H]1C(=O)NC(C#N)c1cnn2cc(F)ccc12)[C@H](F)C3` (stereo partly shown) [Compound 20], for which the figures for the EC50 in series [1] and in series [5] were 0.1 to 1 µM and under 0.1 µM, respectively. In series [2], the CC50 was over 1 µM. In series [3], the CC50 at 6 days was at least 10 µM. The IC50 in series [4] (setting [7]) is under 0.02 µM.

For `CC(C)(C)[C@H](NC(=O)C(F)(F)F)C(=O)N1C[C@@H]2[C@H]3C[C@@H]([C@@H]2[C@H]1C(=O)NC(C#N)c1cncc2c1OCCO2)[C@H](F)C3` (stereo partly shown) [Compound 27], the EC50 (commonly the midpoint of the concentration-response curve) is 1 to 10 µM in series [1] and at least 1 µM in series [5]. The compound further displayed a CC50 in series [2] of over 1 µM. Moreover, the CC50 at 6 days in series [3] is at least 10 µM. For the same compound, the IC50 in series [4] (setting [7]) was in the range of 0.02 to 0.2 µM.

Regarding `CC(C)(C)[C@H](NC(=O)C(F)(F)F)C(=O)N1CCC2(CC2)C[C@H]1C(=O)NC(C#N)c1cnn2ccccc12` (stereo partly shown) [Compound 18], the EC50 in series [1] and in series [5] was 0.1 to 1 µM throughout. Also, in series [2], the CC50 is over 1 µM. In series [3], this compound showed a CC50 at 6 days of at least 10 µM. Further, the IC50 in series [4] (setting [7]) was under 0.02 µM.

With `COc1cccc2cncc([C@@H](C#N)NC(=O)[C@@H]3[C@@H]4[C@H](CN3C(=O)[C@@H](NC(=O)C(F)(F)F)C(C)(C)C)[C@H]3C[C@@H]4[C@H](F)C3)c12` [Compound 28], the EC50 in series [1] and in series [5] was under 0.1 µM each time. In addition, the CC50 in series [2] was over 1 µM. For the same compound, in series [3], the CC50 at 6 days is at least 10 µM. In series [4] (setting [7]), the IC50 is under 0.02 µM.

On to `CC(C)(C)[C@H](NC(=O)C(F)(F)F)C(=O)N1C[C@@H]2[C@H]3C[C@@H]([C@@H]2[C@H]1C(=O)NC1(C#N)CCCc2ccncc21)[C@H](F)C3` (stereo partly shown) [Compound 31], for which the results for the 50% effective concentration (EC50) in series [1] and in series [5] were 1 to 10 µM and at least 1 µM, respectively. Further, the CC50 in series [2] is over 1 µM. Also, the CC50 at 6 days in series [3] is at least 10 µM. Further, the IC50 in series [4] (setting [7]) is 2 to 20 µM; in series [4] (bound given in table footnote, read-out: SARS-Cov-2 activity (footnote of Table 1)), over 2 µM.

In the case of `CC(C)(C)[C@H](NC(=O)C(F)(F)F)C(=O)N1C[C@H]2[C@@H]([C@H]1C(=O)NC(C#N)c1cncc3ccccc13)[C@H]1C=C[C@@H]2C1` (stereo partly drawn) [Compound 1, (1S,3aR,4S,7R,7aS)—N-(cyano(isoquinolin-4-yl)methyl)-2-((S)-3,3-dimethyl-2-(2,2,2-trifluoroacetamido)butanoyl)-2,3,3a,4,7,7a-hexahydro-1H-4,7-methanoisoindole-1-carboxamide], the EC50 in series [1] and in series [5] was under 0.1 µM throughout. For the same compound, the IC50 in series [6] is at least 10 µM; in series [4] (setting [7]), under 0.02 µM. In addition, the CC50 in series [2] was over 1 µM. In addition, the CC50 at 6 days in series [3] is at least 10 µM.

`CC(C)(C)[C@H](NC(=O)C(F)(F)F)C(=O)N1C[C@H]2[C@@H]([C@H]1C(=O)NC(C#N)c1cccnc1)[C@H]1C=C[C@@H]2C1` (stereo partly drawn) [Compound 3, (1R,2S,3S,6R,7S)—N-[cyano(pyridin-3-yl)methyl]-4-[(2S)-3,3-dimethyl-2-(2,2,2-trifluoroacetamido)butanoyl]-4-azatricyclo[5.2.1.0^{2,6}]dec-8-ene-3-carboxamide]: the EC50 in series [1] and in series [5] was 0.1 to 1 µM each time. Besides, the IC50 in series [6] was at least 10 µM; in series [4] (setting [7]) it was under 0.02 µM. The compound also showed a CC50 in series [2] of over 1 µM. Further, the CC50 at 6 days in series [3] was at least 10 µM.

In the case of `Cn1cc(C(C#N)NC(=O)[C@@H]2[C@@H]3[C@H](CN2C(=O)[C@@H](NC(=O)C(F)(F)F)C(C)(C)C)[C@@H]2C=C[C@H]3C2)cn1` (stereo partly drawn) [Compound 6, (1R,2S,3S,6R,7S)—N-[cyano(1-methylpyrazol-4-yl)methyl]-4-[(2S)-3,3-dimethyl-2-(2,2,2-trifluoroacetamido)butanoyl]-4-azatricyclo[5.2.1.0^{2,6}]dec-8-ene-3-carboxamide], the EC50 lay within 1 to 10 µM in series [1] and 0.1 to 1 µM in series [5]. In series [2], this compound returned a CC50 of over 1 µM. The same compound displayed a CC50 at 6 days in series [3] of at least 10 µM. Moreover, the IC50 in series [4] (setting [7]) fell in the range of 0.02 to 0.2 µM.

Turning to `CC(C)(C)[C@H](NC(=O)C(F)(F)F)C(=O)N1CC2(CC2)C[C@H]1C(=O)NC(C#N)c1cnn2ccccc12` (stereo partly drawn) [Compound 17, (6S)—N-(cyano(pyrazolo[1,5-a]pyridin-3-yl)methyl)-5-((S)-3,3-dimethyl-2-(2,2,2-trifluoroacetamido)butanoyl)-5-azaspiro[2.4]heptane-6-carboxamide], the EC50 in series [1] and in series [5] was 0.1 to 1 µM each time. In series [2], the CC50 is over 1 µM. The CC50 at 6 days in series [3] was at least 10 µM. The IC50 in series [4] (setting [7]) was in the range of 0.02 to 0.2 µM.

For `CC(C)(C)[C@H](NC(=O)C(F)(F)F)C(=O)N1C[C@H]2[C@@H]([C@H]1C(=O)NC(C#N)c1cnc3ccccc3c1)[C@H]1C=C[C@@H]2C1` (stereo partly shown) [Compound 15], the EC50 in series [1] and in series [5] was 0.1 to 1 µM throughout. For the same compound, the CC50 in series [2] is over 1 µM. In series [3], this compound gave a CC50 at 6 days of at least 10 µM. Moreover, the IC50 in series [4] (setting [7]) is under 0.02 µM.

Turning to `N#CC(NC(=O)[C@@H]1[C@@H]2[C@H](CN1C(=O)c1cc3c(F)cc(F)cc3[nH]1)[C@@H]1C=C[C@H]2C1)c1cncc2ccccc12` (stereo partly drawn) [Compound 8, (1R,2S,3S,6R,7S)—N-[cyano(isoquinolin-4-yl)methyl]-4-(4,6-difluoro-1H-indole-2-carbonyl)-4-azatricyclo[5.2.1.0^{2,6}]dec-8-ene-3-carboxamide], the EC50 in series [1] and in series [5] was 0.1 to 1 µM throughout. In series [2], the CC50 is over 1 µM. Besides, the CC50 at 6 days in series [3] is 1 to 10 µM. For the same compound, in series [4] (setting [7]), the IC50 lay in the range of 0.02 to 0.2 µM.

Consider `CC(C)(C)[C@H](NC(=O)C(F)(F)F)C(=O)N1C[C@@H]2[C@H]3C[C@@H]([C@@H]2[C@H]1C(=O)NC(C#N)c1cncc2ccccc12)[C@H](F)C3` (stereo partly drawn) [Compound 7, (1S,2R,3S,6R,7S,9R)—N-[cyano(isoquinolin-4-yl)methyl]-4-[(2S)-3,3-dimethyl-2-(2,2,2-trifluoroacetamido)butanoyl]-9-fluoro-4-azatricyclo[5.2.1.0^{2,6}]decane-3-carboxamide], for which the EC50 in series [1] and in series [5] was under 0.1 µM in each case. This compound gave a CC50 in series [2] of over 1 µM. In series [3], this compound registered a CC50 at 6 days of at least 10 µM. The IC50 in series [4] (setting [7]) is under 0.02 µM.

Consider `CC(C)(C)[C@H](NC(=O)C(F)(F)F)C(=O)N1C[C@@H]2[C@H]3C[C@@H]([C@@H]2[C@H]1C(=O)NC(C#N)c1cncc2cccnc12)[C@H](F)C3` (stereo partly drawn) [Compound 9, (1S,2R,3S,6R,7S,9R)—N-[cyano(1,6-naphthyridin-8-yl)methyl]-4-[(2S)-3,3-dimethyl-2-(2,2,2-trifluoroacetamido)butanoyl]-9-fluoro-4-azatricyclo[5.2.1.0^{2,6}]decane-3-carboxamide], for which the EC50 in series [1] and in series [5] was under 0.1 µM each time. The CC50 in series [2] is over 1 µM. Also, in series [3], the CC50 at 6 days is at least 10 µM. For the same compound, the IC50 in series [4] (setting [7]) was under 0.02 µM.

Consider `COc1cccc2cncc([C@H](C#N)NC(=O)[C@@H]3[C@@H]4[C@H](CN3C(=O)[C@@H](NC(=O)C(F)(F)F)C(C)(C)C)[C@H]3C[C@@H]4[C@H](F)C3)c12` [Compound 29], for which the EC50 was 0.1 to 1 µM in series [1] and under 0.1 µM in series [5]. This compound also showed a CC50 in series [2] of over 1 µM. The CC50 at 6 days in series [3] was at least 10 µM. In addition, the IC50 in series [4] (setting [7]) lay in the range of 0.02 to 0.2 µM.

These data come from patent US20240182444A1, “ANTI-VIRAL COMPOUNDS” (Aligos Therapeutics, Inc., priority 2022, published 2024).
